{"source": "patent US20250188040A1", "about": "“PHARMACEUTICAL COMPOSITIONS COMPRISING WRN HELICASE INHIBITORS” (Vividion Therapeutics, Inc., priority 2022, published 2025)", "key": {"WRN C727 [1]": {"target": "T1, WRN C727 (Homo sapiens, UniProt Q14191)", "T1 construct": "endogenous in cells; host or cells: OCI-AML2", "T1 sequence (Q14191 whole entry)": "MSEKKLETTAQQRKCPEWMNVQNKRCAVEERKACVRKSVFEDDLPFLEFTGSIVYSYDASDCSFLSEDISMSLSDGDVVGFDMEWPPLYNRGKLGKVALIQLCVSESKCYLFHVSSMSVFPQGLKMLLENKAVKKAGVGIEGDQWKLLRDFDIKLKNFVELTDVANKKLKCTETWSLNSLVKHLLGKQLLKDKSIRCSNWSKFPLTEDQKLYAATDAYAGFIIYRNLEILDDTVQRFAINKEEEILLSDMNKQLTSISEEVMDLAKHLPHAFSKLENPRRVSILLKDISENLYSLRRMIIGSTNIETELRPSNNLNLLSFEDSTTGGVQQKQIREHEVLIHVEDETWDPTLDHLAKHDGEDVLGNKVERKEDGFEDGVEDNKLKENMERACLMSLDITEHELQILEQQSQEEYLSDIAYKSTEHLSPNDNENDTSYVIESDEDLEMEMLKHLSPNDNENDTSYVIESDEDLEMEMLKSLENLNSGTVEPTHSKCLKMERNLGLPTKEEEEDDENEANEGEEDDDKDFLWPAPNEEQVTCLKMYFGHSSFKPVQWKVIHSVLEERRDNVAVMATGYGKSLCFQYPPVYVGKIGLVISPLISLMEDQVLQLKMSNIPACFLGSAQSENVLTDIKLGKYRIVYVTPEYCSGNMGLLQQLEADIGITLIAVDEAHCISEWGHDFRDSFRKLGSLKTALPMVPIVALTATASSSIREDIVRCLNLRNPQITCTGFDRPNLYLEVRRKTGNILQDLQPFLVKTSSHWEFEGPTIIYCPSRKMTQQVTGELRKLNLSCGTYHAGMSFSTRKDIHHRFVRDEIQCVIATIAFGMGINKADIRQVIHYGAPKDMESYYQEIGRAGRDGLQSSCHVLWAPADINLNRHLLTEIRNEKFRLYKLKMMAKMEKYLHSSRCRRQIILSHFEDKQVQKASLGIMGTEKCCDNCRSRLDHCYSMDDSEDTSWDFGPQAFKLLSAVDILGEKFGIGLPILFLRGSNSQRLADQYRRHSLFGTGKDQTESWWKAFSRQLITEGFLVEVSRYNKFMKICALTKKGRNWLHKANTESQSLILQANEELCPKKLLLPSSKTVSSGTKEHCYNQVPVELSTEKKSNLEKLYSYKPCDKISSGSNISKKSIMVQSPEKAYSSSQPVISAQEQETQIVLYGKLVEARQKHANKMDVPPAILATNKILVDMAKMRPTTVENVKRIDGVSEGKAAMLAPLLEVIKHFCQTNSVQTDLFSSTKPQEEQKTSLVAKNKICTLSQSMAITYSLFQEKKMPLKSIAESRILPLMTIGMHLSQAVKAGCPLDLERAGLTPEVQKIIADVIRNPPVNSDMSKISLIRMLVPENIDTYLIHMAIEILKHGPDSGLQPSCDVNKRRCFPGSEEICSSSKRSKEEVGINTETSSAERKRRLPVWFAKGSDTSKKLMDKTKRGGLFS", "experiment": "Target engagement, in vitro (lysate), OCI-AML2", "assay_type": "binding", "conditions": "read-out: OCI-AML2 WRN C727 TE50 in vitro (lysate)", "method_in_brief": "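OCI-AML2 intact cells or lysates dosed with compound, then a cysteine-reactive probe; after trypsin digestion, probe-labelled peptides were streptavidin-enriched and quantified by nano-LC parallel reaction monitoring MS. Engagement (%) relative to DMSO controls.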"}, "SW480 cells": {"test_system": "SW480 cells", "experiment": "Cell growth assay (CellTiter-Glo 2.0), SW480 MSS cell line", "conditions": "Homo sapiens, SW480, 120 h, read-out: Cell Growth Inhibition GI50 SW480", "description": "The effects of compound on cellular viability were determined using the CellTiter-Glo® 2.0 Luminescent Cell Viability Assay (Promega, Madison, WI).\nSW480 cells were seeded at 1,000 cells per well in Eagle's Minimum Essential Medium (EMEM) with 10% FBS. Both cell lines were seeded in a volume of 50 μL medium per well. […] The concentration range was adjusted as needed for compounds of different potencies. The cells treated with compounds were incubated for 5 days at 37° C. in 5% CO2. […] The plate was then read on a Clariostar plate reader (BMG Labtech, Cary, NC) in luminescence mode. The previously measured baseline cell viability was subtracted from the luminescence value of each well, and cell viability (% of DMSO) was plotted as a function of log compound concentration. The EC50 was then calculated for each compound using Dotmatics Software (San Diego, CA)."}, "[2]": {"target": "hWRN(519-1227)_C-H3CV-GFP-10His (Homo sapiens, UniProt Q14191)", "sequence (Q14191 519-1227)": "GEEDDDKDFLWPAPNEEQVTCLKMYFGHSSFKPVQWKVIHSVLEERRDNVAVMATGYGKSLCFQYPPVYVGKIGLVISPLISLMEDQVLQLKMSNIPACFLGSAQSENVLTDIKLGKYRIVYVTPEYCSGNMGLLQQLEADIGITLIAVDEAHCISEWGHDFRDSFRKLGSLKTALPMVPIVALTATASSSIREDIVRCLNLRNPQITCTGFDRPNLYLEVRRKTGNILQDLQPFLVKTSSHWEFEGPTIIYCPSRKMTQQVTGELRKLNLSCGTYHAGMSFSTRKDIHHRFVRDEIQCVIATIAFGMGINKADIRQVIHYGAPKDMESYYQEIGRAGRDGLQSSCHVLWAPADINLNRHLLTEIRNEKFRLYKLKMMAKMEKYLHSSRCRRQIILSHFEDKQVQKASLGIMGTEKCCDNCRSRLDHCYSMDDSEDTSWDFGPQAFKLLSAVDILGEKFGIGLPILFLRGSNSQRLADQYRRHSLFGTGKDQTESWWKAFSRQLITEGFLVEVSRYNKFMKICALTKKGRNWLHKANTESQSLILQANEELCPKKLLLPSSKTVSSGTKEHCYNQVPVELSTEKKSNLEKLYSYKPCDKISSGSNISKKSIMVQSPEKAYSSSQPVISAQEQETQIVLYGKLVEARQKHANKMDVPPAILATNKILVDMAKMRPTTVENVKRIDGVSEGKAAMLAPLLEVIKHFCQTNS", "experiment": "Helicase Assay for WRN Inhibition (ATP-dependent, fluorescence based)"}, "WRN C727 [3]": {"target": "T1, WRN C727", "experiment": "Target engagement, in situ (cell), OCI-AML2", "assay_type": "cell-based", "conditions": "OCI-AML2 cells, read-out: OCI-AML2 WRN C727 TE50 in situ (cell)", "method": "Cells or cell lysates were treated with a dose response of compound followed by probe treatment, which labels solvent exposed cysteines. Proteins were enzymatically digested with trypsin and probe-labelled peptides were enriched with streptavidin. Isolated peptides were then separated using reversed-phase liquid chromatography on a C18 column (Dionex Ultimated 3000 nano-LC, Thermo). Peptides were analyzed by parallel reaction monitoring mass spectrometry (Exploris 120, Thermo).\nTarget engagement (%) is calculated relative to DMSO treated control samples."}, "HCT 116 cells": {"test_system": "HCT 116 cells", "experiment": "Cell growth assay (CellTiter-Glo 2.0), HCT 116 MSI-H cell line", "conditions": "Homo sapiens, HCT-116, 120 h, read-out: Cell Growth Inhibition GI50 HCT-116"}, "[4]": {"conditions": "WRN Helicase IC50, 30 min preincubation with ATP, 30 min reaction"}}, "note": "Read-outs that look alike come from different tables or passages of the source.", "data": [{"compound": "C[C@@H](/C=C/S(C)(=O)=O)NC(=O)c1cnc(C(C)(C)C)nc1OC1CCCCC1", "note": "[Example 154, (S,E)-2-(tert-butyl)-4-(cyclohexyloxy)-N-(4-(methylsulfonyl)but-3-en-2-yl)pyrimidine-5-carboxamide]", "values": [{"measurement": "IC50", "setting": "WRN C727 [1]", "value": 1330, "unit": "nM"}, {"measurement": "GI50", "setting": "SW480 cells", "value": 8970, "unit": "nM"}, {"measurement": "IC50", "setting": "[2]; [4]", "value": 330, "unit": "nM"}, {"measurement": "IC50", "setting": "WRN C727 [3]", "value": 140, "unit": "nM"}, {"measurement": "GI50", "setting": "HCT 116 cells", "value": 222, "unit": "nM"}]}, {"compound": "C[C@@H](/C=C/S(C)(=O)=O)NC(=O)c1cc(C#N)c(C2CCCC2)nc1Oc1ccccc1", "note": "[Example 163, (S,E)-5-cyano-6-cyclopentyl-N-(4-(methylsulfonyl)but-3-en-2-yl)-2-phenoxynicotinamide]", "values": [{"measurement": "IC50", "setting": "WRN C727 [1]", "value": 1760, "unit": "nM"}, {"measurement": "GI50", "setting": "SW480 cells", "value": 3900, "unit": "nM"}, {"measurement": "IC50", "setting": "[2]; [4]", "value": 740, "unit": "nM"}, {"measurement": "IC50", "setting": "WRN C727 [3]", "value": 560, "unit": "nM"}, {"measurement": "GI50", "setting": "HCT 116 cells", "value": 400, "unit": "nM"}]}, {"compound": "C[C@@H](/C=C/S(C)(=O)=O)NC(=O)c1cnc(NC2CCCC2)nc1Oc1ccccc1", "note": "[Example 164, (S,E)-2-(cyclopentylamino)-N-(4-(methylsulfonyl)but-3-en-2-yl)-4-phenoxypyrimidine-5-carboxamide]", "values": [{"measurement": "IC50", "setting": "WRN C727 [1]", "value": "> 100000", "unit": "nM"}, {"measurement": "GI50", "setting": "SW480 cells", "value": "> 10000", "unit": "nM"}, {"measurement": "IC50", "setting": "[2]; [4]", "value": 12000, "unit": "nM"}, {"measurement": "IC50", "setting": "WRN C727 [3]", "value": 21400, "unit": "nM"}, {"measurement": "GI50", "setting": "HCT 116 cells", "value": 7100, "unit": "nM"}]}, {"compound": "CC(C)(C)c1ncc(C(=O)N2CC(=CS(C)(=O)=O)C2)c(Oc2ccccc2)n1", "note": "[Example 189, (2-(tert-butyl)-4-phenoxypyrimidin-5-yl)(3-((methylsulfonyl)methylene)azetidin-1-yl)methanone]", "values": [{"measurement": "IC50", "setting": "WRN C727 [1]", "value": 640, "unit": "nM"}, {"measurement": "GI50", "setting": "SW480 cells", "value": "> 13800", "unit": "nM"}, {"measurement": "IC50", "setting": "[2]", "value": 241, "unit": "nM"}, {"measurement": "IC50", "setting": "WRN C727 [3]", "value": 100, "unit": "nM"}, {"measurement": "GI50", "setting": "HCT 116 cells", "value": 102, "unit": "nM"}]}, {"compound": "CS(=O)(=O)/C=C/[C@@H](NC(=O)c1cnc(C(F)(F)C2CC2)nc1Oc1ccccc1)C1CC1", "note": "[Example 224, (S,E)-N-(1-cyclopropyl-3-(methylsulfonyl)allyl)-2-(cyclopropyldifluoromethyl)-4-phenoxypyrimidine-5-carboxamide]", "values": [{"measurement": "IC50", "setting": "WRN C727 [1]", "value": 93.2, "unit": "nM"}, {"measurement": "GI50", "setting": "SW480 cells", "value": 13600, "unit": "nM"}, {"measurement": "IC50", "setting": "[2]; [4]", "value": 48.3, "unit": "nM"}, {"measurement": "IC50", "setting": "WRN C727 [3]", "value": 8.75, "unit": "nM"}, {"measurement": "GI50", "setting": "HCT 116 cells", "value": 17, "unit": "nM"}]}, {"compound": "CS(=O)(=O)/C=C/[C@@H](NC(=O)c1cnc(C(F)(F)C2CC2)nc1Oc1ccccc1)C1CCC1", "note": "[Example 225, (S,E)-N-(1-cyclobutyl-3-(methylsulfonyl)allyl)-2-(cyclopropyldifluoromethyl)-4-phenoxypyrimidine-5-carboxamide]", "values": [{"measurement": "IC50", "setting": "WRN C727 [1]", "value": 119, "unit": "nM"}, {"measurement": "GI50", "setting": "SW480 cells", "value": 18000, "unit": "nM"}, {"measurement": "IC50", "setting": "[2]; [4]", "value": 54.4, "unit": "nM"}, {"measurement": "IC50", "setting": "WRN C727 [3]", "value": 16, "unit": "nM"}, {"measurement": "GI50", "setting": "HCT 116 cells", "value": 17, "unit": "nM"}]}, {"compound": "N#CC=C1CN(C(=O)c2cnc(C3CC3)nc2Oc2ccccc2)C1", "note": "[Example 264, 2-(1-(2-cyclopropyl-4-phenoxypyrimidine-5-carbonyl)azetidin-3-ylidene)acetonitrile]", "values": [{"measurement": "IC50", "setting": "WRN C727 [1]", "value": 16300, "unit": "nM"}, {"measurement": "GI50", "setting": "SW480 cells", "value": 8100, "unit": "nM"}, {"measurement": "IC50", "setting": "[2]", "value": 2300, "unit": "nM"}, {"measurement": "IC50", "setting": "WRN C727 [3]", "value": 6650, "unit": "nM"}, {"measurement": "GI50", "setting": "HCT 116 cells", "value": 3800, "unit": "nM"}]}, {"compound": "C=C(C#N)CNC(=O)c1cnc(C(F)(F)C2CC2)nc1Oc1ccccc1", "note": "[Example 272, N-(2-cyanoallyl)-2-(cyclopropyldifluoromethyl)-4-phenoxypyrimidine-5-carboxamide]", "values": [{"measurement": "IC50", "setting": "WRN C727 [1]", "value": 8280, "unit": "nM"}, {"measurement": "GI50", "setting": "SW480 cells", "value": 7800, "unit": "nM"}, {"measurement": "IC50", "setting": "[2]", "value": 380, "unit": "nM"}, {"measurement": "IC50", "setting": "WRN C727 [3]", "value": 3960, "unit": "nM"}, {"measurement": "GI50", "setting": "HCT 116 cells", "value": 210, "unit": "nM"}]}]}
